The numbers were not newly measured in US20130078304A1, “CONTROLLED RELEASE FORMULATION FOR TREATING SLEEP DISORDERS” (TAIWAN BIOTECH CO., LTD., priority 2011, published 2013), which cites them from elsewhere.

Series [1] has as its target T1, benzodiazepine (BZ1) receptors (Homo sapiens, UniProt P14867+P18507).
T1 sequence (P14867 28-456): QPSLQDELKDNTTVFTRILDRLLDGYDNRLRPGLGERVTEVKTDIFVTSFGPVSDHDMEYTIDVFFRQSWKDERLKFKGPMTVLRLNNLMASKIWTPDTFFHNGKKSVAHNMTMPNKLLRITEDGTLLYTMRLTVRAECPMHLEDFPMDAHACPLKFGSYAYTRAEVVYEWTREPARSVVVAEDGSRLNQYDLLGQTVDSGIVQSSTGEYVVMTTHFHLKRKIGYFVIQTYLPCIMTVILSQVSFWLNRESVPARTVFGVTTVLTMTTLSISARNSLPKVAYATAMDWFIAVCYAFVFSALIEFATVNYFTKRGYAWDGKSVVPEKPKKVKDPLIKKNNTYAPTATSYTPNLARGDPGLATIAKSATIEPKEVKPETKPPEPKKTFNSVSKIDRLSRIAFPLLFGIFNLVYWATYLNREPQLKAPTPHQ
T1 sequence (P18507 40-467 limits assumed): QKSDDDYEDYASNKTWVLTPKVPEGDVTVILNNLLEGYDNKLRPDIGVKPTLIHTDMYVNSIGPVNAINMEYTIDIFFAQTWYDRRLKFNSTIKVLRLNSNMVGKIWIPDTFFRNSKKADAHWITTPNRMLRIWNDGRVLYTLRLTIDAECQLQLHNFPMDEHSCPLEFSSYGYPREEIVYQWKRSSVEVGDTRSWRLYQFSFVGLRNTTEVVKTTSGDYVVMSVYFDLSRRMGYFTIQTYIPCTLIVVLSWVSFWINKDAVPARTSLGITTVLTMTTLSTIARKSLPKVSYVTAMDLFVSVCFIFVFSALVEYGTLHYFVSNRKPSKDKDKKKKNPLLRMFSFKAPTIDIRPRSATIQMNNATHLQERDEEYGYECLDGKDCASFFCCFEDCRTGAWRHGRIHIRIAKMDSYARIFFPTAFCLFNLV
T1 sequence (P47870 25-512 partner limits assumed): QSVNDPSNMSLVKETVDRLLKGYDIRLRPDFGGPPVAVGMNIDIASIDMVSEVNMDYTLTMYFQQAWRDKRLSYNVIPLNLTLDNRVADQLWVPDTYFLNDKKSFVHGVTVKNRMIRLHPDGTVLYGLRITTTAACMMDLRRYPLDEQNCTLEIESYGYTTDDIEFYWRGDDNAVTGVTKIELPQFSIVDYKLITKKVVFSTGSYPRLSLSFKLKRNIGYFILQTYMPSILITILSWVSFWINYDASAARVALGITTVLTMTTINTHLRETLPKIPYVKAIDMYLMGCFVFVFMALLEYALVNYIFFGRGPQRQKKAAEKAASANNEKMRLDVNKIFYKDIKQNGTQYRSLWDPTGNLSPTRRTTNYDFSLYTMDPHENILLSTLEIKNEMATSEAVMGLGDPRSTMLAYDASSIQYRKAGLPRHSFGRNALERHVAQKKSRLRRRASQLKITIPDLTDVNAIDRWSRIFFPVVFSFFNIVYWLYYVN

As for `CCN(C(C)=O)c1cccc(-c2ccnc3c(C#N)cnn23)c1` [Zaleplon, N-[3-(3-cyanopyrazolo-[1,5-a]-pyrimidin-7-yl)-phenyl]-N-ethyl acetamide], the “solubility in aqueous media” value was “poorly soluble”. The “binding to the BZ1 receptor” value in series [1] is “more weakly bound to the receptor than is Zolpidem”.
